Data as given in patent US8969295B2, “Identifying and modulating molecular pathways that mediate nervous system plasticity” (Massachusetts Institute of Technology, priority 2006, dated 2015).
Entries after “also recorded” stand apart in the source; their conditions may differ.

What was measured:
PKC = details: Nishiyama et al., 2003; cited from earlier work
cGMP = details: Leamey et al., 2001; cited from earlier work
[1] = test system: visual cortex gene expression; test: Microarray analysis of MD+IGF1 animals versus MD animals, all genes; format: in vivo, mouse; details: 4 days MD + daily IP IGF1, microarray
Protocol: (§1) In additional experiments in which the effects of short-term (4 days from P23-27) MD were investigated, as well the effects of IGF1 infusion concurrent with MD, a total of four experimental groups were analyzed: a new group of control animals (3 samples), the ipsilateral and the contralateral cortex of mice monocularly deprived for four days (3 samples for the ipsilateral and 3 samples for the contralateral cortex), the contralateral cortex of mice that were monocularly deprived for four days and were injected IP daily with IGF1 solution (3 samples). Tissue was removed and the RNA extracted as described above, and labeled RNA was hybridized to the Affymetrix mouse genome 430.2 chip, which contains oligonucleotides that correspond to a total of 42,000 probes targeting genes and ESTs.
(§2) A method for the Significance Analysis of Microarrays to assess changes in gene expression was used^31, and the method was implemented in MATLAB (The Mathworks, Natick, Mass.). The method allows the comparison of the expression level of each gene under two conditions (e.g., MD vs. control; or DR vs. control). […] Correlations between replicates were calculated as correlation coefficients (c.c.) for all conditions: control (c.c.=0.99±0.002), MD 16 days (c.c.=0.9±0.05), MD 4 days contralateral (c.c.=0.99±0.001), MD 4 days ipsilateral (0.99±0.005), MD 4 days contralateral plus IGF1 (c.c.=0.99±0.004). […]

binocular portion of V1 = test: Optical imaging of intrinsic signals in V1: ocular dominance after monocular deprivation (MD) with IGF1; format: in vivo, mouse
Protocol: For monocular deprivation, animals were anesthetized with avertin (0.016 ml/g) and the eyelids of one eye were sutured (at P20-22 for 7 days for imaging experiments). Before imaging, the suture was removed and the deprived eye re-opened. Only animals in which the deprivation sutures were intact and the condition of the deprived eye appeared healthy were used for the imaging session. For DR animals (aged P27-30), the procedure was the same described above, with the exception that the animals were anesthetized in darkness and not exposed to light until deeply anaesthetized; in these mice only the binocular response was evaluated and compared to that in control animals.
Mice (129/SvEv and C57B1/6) aged P26-30 were anesthetized with urethane (1.5 g/Kg) and chlorprothixene (0.2 mg), as described^84. Skin was excised and the skull exposed over V1. A custom-made attachment was used to fix the head and minimize movements. The cortex was covered with agarose solution (1.5%) and a glass cover slip. During the imaging session the animal's body temperature was kept constant with a heating blanket and the EKG monitored constantly. […]
A temporal high pass filter (135 frames) was employed to remove slow noise components, after which the temporal Fast Fourier Transform (FFT) component at the stimulus frequency ([…]) was calculated pixel by pixel from the whole set of images. […]

[2] = in vivo; cited from earlier work
synapsin 1 = test: Immunostaining in V1 after MD with concurrent IGF1; format: in vivo, mouse; details: short-term (4 days) MD + daily IP IGF1; P<0.05
Protocol: as §1
(§3) Mice were anesthetized and transcardially perfused with a solution of 4% paraformaldehyde. The appropriate brain hemispheres were removed and equilibrated in 30% sucrose in PBS. Coronal sections containing visual cortex were cut using a freezing microtome. Immunohistochemistry for GluR1 (1:500, Upstate), IGFBP5 (1:500, USBiological), CaMK2alpha (1:500, Sigma), PhosphoCREB (1:500, Cell Signaling), activated Stat1 (1:500, Abcam), parvalbumin (1:1000, Chemicon), calretinin (1:500, Chemicon), somatostatin (1:300, Chemicon), neuropeptideY (1:400, Chemicon), synapsin 1 (1:500, Chemicon), IGF1 (1:250, Chemicon), GAD 67 (1:400, Chemicon), IGF1R (1:500, Upstate), PI3K—catalytic subunit 110 (1:400, Upstate), phosphorylated-Akt (1:250, Cell Signaling), was carried out as described elsewhere^82,83. For each staining, analysis was repeated in parallel for control and deprived animals. Experiments were carried out at least on two animals for each group and repeated twice. The intensity of staining in sections from control and deprived animals was evaluated with ImageJ software (rsb.info.nih.gov/ij/). Counts of parvalbumin, calretinin, somatostatin and NPY-positive cells were performed as described elsewhere^29.
(§4) For IGF1 treatment, a solution containing GPE, the functional peptide of IGF1, was prepared as described^56: 300 μg of GPE was injected intra-peritoneally daily for the entire period of deprivation. This peptide is referred to as “IGF1” in the Results below.

IGFBP5 [3] = test: Immunostaining in V1 after MD with concurrent IGF1; format: in vivo, mouse; details: short-term (4 days) MD + daily IP IGF1, cortex contralateral to deprived eye
Protocol: as §1, §3, §4

[4] = test system: Phosphatidylinositol 3-Kinase (PI3K); test: Immunostaining in V1 after MD with concurrent IGF1; format: in vivo, mouse; details: short-term (4 days) MD + daily IP IGF1; P<0.05
Protocol: as §1, §3, §4

phosphorylated-Akt = test: Immunostaining in V1 after MD with concurrent IGF1; format: in vivo, mouse; details: short-term (4 days) MD + daily IP IGF1
Protocol: as §1, §3, §4

IGF1 receptor (IGF1R) = test: Immunostaining in V1 after MD with concurrent IGF1; format: in vivo, mouse; details: short-term (4 days) MD + daily IP IGF1
Protocol: as §1, §3, §4

IGFBP5 [5] = test: Microarray analysis of MD+IGF1 animals versus MD animals; format: in vivo, mouse; details: 4 days MD + daily IP IGF1, contralateral cortex; P<0.01
Protocol: as §1, §2

PI3K = test: as above; format: in vivo, mouse; details: 4 days MD + daily IP IGF1, contralateral cortex; P<0.01
Protocol: as §1, §2

ischemia in the CNS = details: intra-peritoneal administration; cited from earlier work

## CN(C)CCCn1cc(C2=C(c3c[nH]c4ccccc34)C(=O)NC2=O)c2ccccc21 [GF109203X]
PKC
  Effective doses in slices: 10 to 100 µM

## O=c1onc2cnc3ccccc3n12 [ODQ]
cGMP
  effective dose for influencing axon growth: about 10 μM

## IGF1: GPE, the functional peptide of IGF1 (tripeptide), referred to as IGF1 in the Results of Example 4 (Insulin-like growth factor I; UniProt P05019 49-51, looked up, fragment)
[1]
  genes significantly altered in expression in MD+IGF1 animals compared to MD animals: only a small fraction of genes was significantly altered
Binocular portion of V1; 7 days MD + IGF1 i.p., n=3, P>0.2 vs control
  shift of mean ocular dominance index across animals relative to control: prevented the shift
Binocular portion of V1; 7 days MD during critical period, 300 μg GPE intra-peritoneally daily for the period of deprivation
  ocular dominance shift towards the open eye (ocular dominance distribution of pixels within the binocular zone): prevented the ocular dominance shift towards the open eye; also recorded: prevents the ocular dominance shift
[2]
  ability to cross the blood brain barrier: able to cross the blood brain barrier
Synapsin 1
  level of synapsin expression, immunostaining for synapsin 1 in V1: significant increase
IGFBP5 [3]
  IGFBP5 immunostaining in V1: no change from normal levels
[4]
  PI3K expression, immunostaining in V1: fully restored
phosphorylated-Akt
  Expression of phosphorylated-Akt, immunostaining in V1: restored
IGF1 receptor (IGF1R)
  Expression of the IGF1 receptor (IGF1R), immunostaining in V1: partially restored
IGFBP5 [5]
  IGFBP5 microarray expression compared to MD alone: significantly downregulated
PI3K
  PI3K microarray expression compared to MD alone: upregulated
Ischemia in the CNS
  effects of ischemia in the CNS: prevents the effects of ischemia in the CNS
